Read-outs that look alike come from different tables or passages of the source.
Tests used:
[1] = system: Salmonella typhimirium TA 97a, TA 98, TA 100, TA 102 and TA 1535; experiment: Bacterial reverse mutation (Ames) test
[2] = system: mouse bone marrow polychromatic erythrocytes; experiment: Micronucleus test in mouse bone marrow; assay type: in vivo; details: mice; 25 mg/Kg i.p.
Protocol: The ratio of polychromatic to normochromatic erythrocytes and the count of micronuclei were determined. This assay was conducted in compliance with the GLP principles.

SARS-COV-2 [3] = experiment: Combination with SARS-COV-2 nsp14 (exonuclease) inhibitors in Calu-3 cells, infectious virus titers; assay type: cell-based; details: for effect of co-treatment with raltegravir or dolutegravir (iEXO) on inhibition of SARS-COV-2: drug 10 μM, raltegravir or dolutegravir 5 μM
SARS-COV-2 [4] = experiment: SARS-COV-2 viral RNA synthesis in Calu-3 cells (real time RT-PCR); assay type: cell-based; details: 1.0 μM
[5] = Cytotoxicity assay (XTT) in Calu-3 cells; assay type: cell-based, human; details: human
Protocol: (§1) In parallel, cytotoxicity assays were performed.

SARS-COV-2 [6] = details: for SI: CC50/EC50
SARS-COV-2 [7] = experiment: SARS-COV-2 viral RNA synthesis in Vero cells (real time RT-PCR); assay type: cell-based; details: for EC50: Severe acute respiratory syndrome coronavirus 2, Vero (MOI 0.01 24 h), read-out: EC50
SARS-COV-2 [8] = experiment: SARS-COV-2 viral RNA synthesis in HuH-7 cells (real time RT-PCR); assay type: cell-based; details: for SI: Huh-7, CC50/EC50; for EC50: Severe acute respiratory syndrome coronavirus 2, Huh-7 (MOI 0.1 48 h), read-out: EC50
[9] = Cytotoxicity assay (XTT) in Huh-7 cells; assay type: cell-based; details: human
Protocol: In parallel, cytotoxicity assays were performed. Monolayers of 1.5×10^4 cells in 96-well plates were treated for 3 days with various concentrations (semi-log dilutions from 1,000 to 10 μM) of the antiviral drugs. Then, 5 mg/mL 2,3-bis-(2-methoxy-4-nitro-5-sulfophenyl)-2H-tetrazolium-5-carboxanilide (XTT) in DMEM was added to the cells in the presence of 0.01% of N-methyl dibenzopyrazine methyl sulfate (PMS).

Calu-3 cells = experiment: Cytotoxicity assay (XTT) in Calu-3 cells; assay type: cell-based, human
Protocol: as §1

SARS-COV-2 [10] = experiment: SARS-COV-2 RNA loads in human primary monocytes; assay type: cell-based; details: 24 h
Protocol: (§2) FIG. 5A, 5B and 5C. The compounds impair SARS-COV-2 RNA synthesis and SARS-COV-2-induced release of inflammatory mediators in human primary monocytes.
(§3) Human primary monocytes were obtained after 3 h of plastic adherence of peripheral blood mononuclear cells (PBMCs). PBMCs were isolated from healthy donors by density gradient centrifugation (Ficoll-Paque, GE Healthcare). PBMCs (2.0×10^6 cells) were plated onto 48-well plates (NalgeNunc) in RPMI-1640 without serum for 2 to 4 h. Non-adherent cells were removed, and the remaining monocytes were maintained in DMEM with 5% human serum (HS; Millipore) and penicillin/streptomycin. Monocytes were infected at MOI of 0.1. After 1 h inoculation period, cells were washed with phosphate saline buffer (PBS) to remove unbounded viruses and treated with 1 μM of the indicated compounds. After 24 h after infection, cell monolayers werc lysed total viral RNA was extracted, quantitative RT-PCR was performed, to detect the SARS-COV-2 and the housekeeping gene RNAse P.

TNF-α and IL-6 = TNF-α and IL-6 levels in supernatant of SARS-COV-2-infected human primary monocytes; assay type: cell-based; details: 24 h
Protocol: as §2, §3

[11] = Cytotoxicity assay (XTT) in Vero cells; assay type: cell-based; details: African green monkey
Protocol: as §1

[12] = Severe acute respiratory syndrome coronavirus 2, Calu-3, alone or in combination as labelled
[13] = Calu-3, single moment treatment
[14] = Table 6, Calu-3, daily treatment
[15] = Table 6, Calu-3, single treatment
[16] = Severe acute respiratory syndrome coronavirus 2, Calu-3, 72 h, Calu-3 (MOI 0.5 72 h), daily treatment
[17] = Severe acute respiratory syndrome coronavirus 2, Calu-3, 72 h, Calu-3 (MOI 0.5 72 h), single moment treatment
[18] = Severe acute respiratory syndrome coronavirus 2, Calu-3, Table 6, Calu-3, daily treatment
[19] = Severe acute respiratory syndrome coronavirus 2, Calu-3, Table 6, Calu-3, single treatment

Nc1ccc2cc3ccccc3cc2c1 [2-aminoanthracene, reference compound]
Mutagenicity ([1]; TA 102 +S9, positive control 5 μg/plate): + | Mutagenicity ([1]; TA 1535 +S9, positive control 2.5 μg/plate): +

O=P1(N(CCCl)CCCl)NCCCO1 (centres unmarked) [Cyclophosphamide, reference compound]
MNPCE/4,000 PCE (Mean ± S.D.) [2]: 16.20 ± 6.03

C[C@@H]1CCO[C@H]2Cn3cc(C(=O)NCc4ccc(F)cc4F)c(=O)c(O)c3C(=O)N12 [DTG, dolutegravir]
EC50 (SARS-COV-2 [3]; [12]): 5.3 µM | effect on SARS-COV-2 replication (SARS-COV-2 [3]; calu-3, 5 μM): marginal effects

COC(=O)N[C@H](C(=O)N1CCC[C@H]1c1nc(-c2ccc(-c3ccc(-c4c[nH]c([C@@H]5CCCN5C(=O)[C@@H](NC(=O)OC)C(C)C)n4)cc3)cc2)c[nH]1)C(C)C [Daclatasvir]
EC50 (SARS-COV-2 [3]; [12]): 0.7 µM | EC90 (SARS-COV-2 [3]; [12]): 3.8 µM

NC(=O)c1nc(F)c[nH]c1=O [Favipiravir]
EC50 (SARS-COV-2 [3]; [12]): 7.8 µM

CC(C)OC(=O)[C@H](C)NP(=O)(OC[C@H]1O[C@@H](n2cnc3c(NCc4ccco4)ncnc32)[C@H](O)[C@@H]1O)Oc1ccccc1 (some centres unmarked) [MB-711, kinetin riboside monophosphoramidate]
inhibition of SARS-COV-2 RNA synthesis (SARS-COV-2 [4]): best profiles | CC50 at 3 days ([5]; Calu-3, daily treatment): 580 µM | CC50 at 3 days [5, 13]: 562 µM | CC50 at 3 days [5, 14]: 580 µM | CC50 at 3 days [5, 15]: 562 µM | effect of co-treatment with raltegravir or dolutegravir (iEXO) on inhibition of SARS-COV-2 (SARS-COV-2 [3]; calu-3): synergistic | SI (SARS-COV-2 [6]; Calu-3, daily treatment): 58000 µM | SI (SARS-COV-2 [6]; [13]): 510 | EC50 (SARS-COV-2 [6]; [16]): 0.01 µM | EC90 (SARS-COV-2 [6]; [16]): 3.8 µM | EC50 (SARS-COV-2 [6]; [17]): 1.1 µM | EC90 (SARS-COV-2 [6]; [17]): 9.2 µM | EC50 (SARS-COV-2 [6]; [18]): 0.01 µM | EC90 (SARS-COV-2 [6]; [18]): 3.8 µM | EC50 (SARS-COV-2 [6]; [19]): 1.1 µM | EC90 (SARS-COV-2 [6]; [19]): 9.2 µM | SI (SARS-COV-2 [6]; [14]): 58,000 | SI (SARS-COV-2 [6]; [15]): 510

OC[C@H]1O[C@@H](n2cnc3c(NCc4ccco4)ncnc32)[C@H](O)[C@@H]1O [MB-801, kinetin riboside]
EC50 (SARS-COV-2 [7]): 8 µM | SI (SARS-COV-2 [8]): 2290 | EC50 (SARS-COV-2 [8]): 0.1 µM | inhibition of SARS-COV-2 RNA synthesis (SARS-COV-2 [4]): best profiles | CC50 at 3 days [9]: 229 µM | CC50 at 3 days [5, 14]: 530 µM | CC50 at 3 days [5, 15]: 550 µM | CC50 (Calu-3 cells; Calu-3, daily treatment): 530 µM | CC50 (Calu-3 cells; [13]): 550 µM | viral RNA levels/cell (SARS-COV-2 [10]): reduced | SARS-CoV-2-induced enhancement of IL-6 levels in culture supernatant (TNF-α and IL-6): reduced | SARS-CoV-2-induced enhancement of TNF-α levels in culture supernatant (TNF-α and IL-6): reduced | effect of co-treatment with raltegravir or dolutegravir (iEXO) on inhibition of SARS-COV-2 (SARS-COV-2 [3]; calu-3): synergistic | SI (SARS-COV-2 [6]; Calu-3, daily treatment): 26500 µM | SI (SARS-COV-2 [6]; [13]): 3055 | EC50 (SARS-COV-2 [6]; [16]): 0.02 µM | EC90 (SARS-COV-2 [6]; [16]): 3.7 µM | EC50 (SARS-COV-2 [6]; [17]): 0.18 µM | EC90 (SARS-COV-2 [6]; [17]): 7.2 µM | EC50 (SARS-COV-2 [6]; [18]): 0.02 µM | EC90 (SARS-COV-2 [6]; [18]): 3.7 µM | EC50 (SARS-COV-2 [6]; [19]): 0.18 µM | EC90 (SARS-COV-2 [6]; [19]): 7.2 µM | SI (SARS-COV-2 [6]; [14]): 26,500 | SI (SARS-COV-2 [6]; [15]): 3.055

C/C(=C\CNc1ncnc2c1ncn2[C@@H]1O[C@H](CO)[C@@H](O)[C@H]1O)CO [MB-804, zeatin riboside]
EC50 (SARS-COV-2 [7]): 1.4 µM | SI (SARS-COV-2 [7]; Vero, CC50/EC50): 454 | SI (SARS-COV-2 [8]): 78 | EC50 (SARS-COV-2 [8]): 7.2 µM | CC50 at 3 days [11]: 636 µM | CC50 at 3 days [9]: 550 µM | CC50 at 3 days [5, 13]: 580 µM | viral RNA levels/cell (SARS-COV-2 [10]): reduced | effect of co-treatment with raltegravir or dolutegravir (iEXO) on inhibition of SARS-COV-2 (SARS-COV-2 [3]; calu-3): synergistic | SI (SARS-COV-2 [6]; [13]): 500 | EC50 (SARS-COV-2 [6]; [17]): 1.2 µM | EC90 (SARS-COV-2 [6]; [17]): 9.1 µM

c1coc(CNc2ncnc3c2ncn3C2CCCCO2)c1 (centres unmarked) [MB-906]
anti-coronavirus activity (SARS-COV-2 replication) (SARS-COV-2 [8]): not endowed with anti-coronavirus activity | anti-coronavirus activity (SARS-COV-2 replication) (SARS-COV-2 [6]): not endowed with anti-coronavirus activity

From patent US20240207302A1, “ANTIVIRAL COMPOUNDS, METHODS FOR THE MANUFACTURING OF COMPOUNDS, ANTIVIRAL PHARMACEUTICAL COMPOSITION, USE OF THE COMPOUNDS AND METHOD FOR THE ORAL TREATMENT OF CORONAVIRUS INFECTION AND RELATED DISEASES THEREOF” (priority 2021, published 2024)
